Experimental data: patent EP1420018A1, “Pyrido[1,2-a]benzimidazole derivatives useful in treating central nervous system disorders” (Ortho-McNeil Pharmaceutical, Inc., priority 1996, dated 1998)
Where two headings read alike, the source gives them in different places.

Assays:
[1] = tested on: Anxiety in the Adult Male Rat; experiment: Suppression of Anxiety in the Adult Male Rat (rat conflict test); assay type: in vivo, rats; conditions: rat; for minimal effective dose: Rattus norvegicus
Summary of the method: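 Male rats, 48 h water- and 24 h food-deprived, trained with 200 unpunished licks, tested at expected peak drug activity. Every 20th lick punished by 0.2-s shock over a 3-min session; increase in median shocks versus concurrent vehicle assessed by one-tailed Mann-Whitney test (p<0.05), validated with a positive-control anxiolytic.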

[2] = tested on: metrazol-induced convulsions; experiment: Suppression of Metrazol-Induced Convulsions in Adult Male Mice; assay type: in vivo; conditions: mouse; for ED50: Mus musculus, po
[3] = tested on: metrazol-induced convulsions; experiment: as above; assay type: in vivo; conditions: mouse; for ED50: Mus musculus, ip
[4] = target: benzodiazepine site of the GABA-A receptor; experiment: Benzodiazepine Receptor Binding Assay (inhibition of 3H-flunitrazepam binding); conditions: read-out: GABAA Receptor Binding IC50
[5] = po, po, read-out: Rat Conflict (MED, mg/kg) po
[6] = ip, ip, read-out: Rat Conflict (MED, mg/kg) ip

`COCCN1C2=C(C(=O)Nc3ccccc3F)C(=O)CCN2c2ccc(Cl)cc21` [Compound 147] gave a minimal effective dose [1, 5] of over 10 mg/kg, an ED50 [2] of about 5 mg/kg and an ED50 [3] of under 1 mg/kg. For the same molecule, the IC50 [4] was 2.49 nM.
Molecule `COCCN1C2=C(C(=O)Nc3ccccc3F)C(=O)CCN2c2ccc(C(F)(F)F)cc21` [Compound 148] has a minimal effective dose [1, 5] of over 10 mg/kg, an ED50 [2] of about 10 mg/kg and an ED50 [3] of under 1 mg/kg. For the same molecule, the IC50 [4] was 1.98 nM.
In the case of `COCCN1C2=C(C(=O)Nc3ccccc3F)C(=O)CCN2c2ccc(F)c(F)c21` [Compound 149], the minimal effective dose [1, 5] is reported as over 10 mg/kg, the ED50 [2] is reported as 3 mg/kg and the ED50 [3] is reported as under 1 mg/kg. The IC50 [4] was 1.08 nM.
Molecule `CC(C)OCCN1C2=C(C(=O)Nc3ccccc3F)C(=O)CCN2c2ccc(F)cc21` [Compound 150] has a minimal effective dose [1, 5] of 10 mg/kg, an ED50 [2] of 1 mg/kg and an ED50 [3] of under 1 mg/kg. The IC50 [4] was 0.32 nM.
`COCCN1C2=C(C(=O)Nc3c(F)cccc3F)C(=O)CCN2c2ccccc21` [Compound 151] was tested, and the minimal effective dose [1, 5] was 10 mg/kg, the ED50 [2] was about 2 mg/kg and the ED50 [3] was under 1 mg/kg. It also gave an IC50 [4] of 4.64 nM.
Molecule `CCOCCCN1C2=C(C(=O)Nc3ccccc3F)C(=O)CCN2c2ccc(F)cc21` [Compound 152] has a minimal effective dose [1, 5] of 1 mg/kg, an ED50 [2] of about 0.3 mg/kg and an ED50 [3] of under 1 mg/kg. The IC50 [4] was 0.28 nM.
`COCCN1C2=C(C(=O)Nc3ccccc3F)C(=O)CCN2c2ccccc21` [Compound 153] showed a minimal effective dose [1, 5] of at most 1 mg/kg, an ED50 [2] of 1 mg/kg and an ED50 [3] of under 1 mg/kg. It also gave an IC50 [4] of 1.3 nM.
Work on `CCOC(CCN1C2=C(C(=O)Nc3ccccc3F)C(=O)CCN2c2ccc(F)cc21)OCC` [Compound 154] yielded a minimal effective dose [1, 5] of 3 mg/kg, an ED50 [2] of about 3 mg/kg and an ED50 [3] of under 1 mg/kg. It also gave an IC50 [4] of 6.98 nM.
`COCCN1C2=C(C(=O)Nc3nccs3)C(=O)CCN2c2ccc(F)cc21` [Compound 155] was tested, and the “Rat Conflict (MED, mg/kg) po” value ([1]; po) was 3 mg/kg, the “Mouse Metrazol (ED50, mg/kg) po” value [2] was “ca. 1.5 mg/kg” and the “Mouse Metrazol (ED50, mg/kg) ip” value [3] was under 1 mg/kg. The IC50 [4] was 6.13 nM.
Work on `COCCN1C2=C(C(=O)Nc3ccc(Cl)cc3)C(=O)CCN2c2ccccc21` [Compound 156] yielded a minimal effective dose [1, 5] of 1 mg/kg, an ED50 [2] of about 2 mg/kg and an ED50 [3] of under 1 mg/kg. It also gave an IC50 [4] of 16 nM.
Work on `CCOCN1C2=C(C(=O)Nc3ccccc3F)C(=O)CCN2c2ccc(Cl)cc21` [Compound 157] yielded a minimal effective dose [1, 5] of over 10 mg/kg, an ED50 [2] of about 2 mg/kg and an ED50 [3] of under 1 mg/kg. The IC50 [4] was 0.48 nM.
`COCN1C2=C(C(=O)Nc3ccccc3F)C(=O)CCN2c2ccc(F)cc21` [Compound 158] was tested, and the minimal effective dose [1, 6] was under 10 mg/kg, the minimal effective dose [1, 5] was 3 mg/kg and the ED50 [2] was 0.1 mg/kg. The ED50 [3] was 0.01 mg/kg and the IC50 [4] was 0.15 nM.
With `COCCOCN1C2=C(C(=O)Nc3ccccc3F)C(=O)CCN2c2ccc(F)cc21` [Compound 159] the minimal effective dose [1, 6] was under 10 mg/kg, the minimal effective dose [1, 5] was 3 mg/kg and the ED50 [2] was 0.1 mg/kg. It also gave an ED50 [3] of 0.003 mg/kg and an IC50 [4] of 0.8 nM.
Work on `COCCN1C2=C(C(=O)Nc3ccccc3F)C(=O)CCN2c2ccc(F)cc21` [Compound 163] yielded a minimal effective dose [1, 6] of under 10 mg/kg, a minimal effective dose [1, 5] of 0.1 mg/kg and an ED50 [2] of 0.2 mg/kg. For the same molecule, the ED50 [3] was 0.01 mg/kg and the IC50 [4] was 0.61 nM.
Molecule `CC1(C)OCC(CN2C3=C(C(=O)Nc4ccccc4F)C(=O)CCN3c3ccc(F)cc32)O1` (stereo not shown) [Compound 164] has a minimal effective dose [1, 6] of under 10 mg/kg, a minimal effective dose [1, 5] of 10 mg/kg and an ED50 [2] of 1 mg/kg. The ED50 [3] was 0.1 mg/kg and the IC50 [4] was 2.75 nM.
Work on `O=C1CCN2C(=C1C(=O)Nc1cccnc1)N(CCOCc1ccccc1)c1cc(F)ccc12` [Compound 165] yielded a minimal effective dose [1, 6] of over 7 mg/kg, an ED50 [2] of over 30 mg/kg and an ED50 [3] of 3 mg/kg. For the same molecule, the IC50 [4] was 39.2 nM.
With `O=C1CCN2C(=C1C(=O)Nc1ccccc1F)N(COCc1ccccc1)c1cc(F)ccc12` [Compound 167] the minimal effective dose [1, 6] was over 10 mg/kg, the minimal effective dose [1, 5] was over 10 mg/kg and the ED50 [2] was under 30 mg/kg. For the same molecule, the ED50 [3] was under 1 mg/kg and the IC50 [4] was 0.26 nM.
For `O=C1CCN2C(=C1C(=O)Nc1ccccc1F)N(CCO)c1cc(F)ccc12` [Compound 168, 7-Fluoro-1,2-dihydro-5-(2-hydroxyethyl)-3-oxo-N-(2-fluorophenyl)pyrido[1,2-a]benzimidazole-4-carboxamide], the minimal effective dose [1, 6] was 10 mg/kg, the minimal effective dose [1, 5] was over 10 mg/kg and the ED50 [2] was under 30 mg/kg. The ED50 [3] was under 1 mg/kg and the IC50 [4] was 1.17 nM.
With `O=C1CCN2C(=C1C(=O)Nc1ccccc1F)N(CCCO)c1cc(F)ccc12` [Compound 169] the minimal effective dose [1, 6] was 10 mg/kg, the minimal effective dose [1, 5] was 10 mg/kg and the ED50 [2] was 0.5 mg/kg. For the same molecule, the ED50 [3] was 0.1 mg/kg and the IC50 [4] was 1.08 nM.
In the case of `O=C1CCN2C(=C1C(=O)Nc1ccccc1F)N(CCCOCc1ccccc1)c1cc(F)ccc12` [Compound 170], the minimal effective dose [1, 6] is reported as under 10 mg/kg, the minimal effective dose [1, 5] is reported as over 10 mg/kg and the ED50 [2] is reported as under 30 mg/kg. The ED50 [3] was under 1 mg/kg and the IC50 [4] was 0.21 nM.
`O=C1CCN2C(=C1C(=O)Nc1ccccc1F)N(CCOCc1ccccc1)c1cc(F)ccc12` [Compound 171, 7-Fluoro-1,2-dihydro-5-[2-(benzyloxy)ethyl]-3-oxo-N-(2-fluorophenyl)pyrido[1,2-a]benzimidazole-4-carboxamide] showed a minimal effective dose [1, 6] of 10 mg/kg, a minimal effective dose [1, 5] of 10 mg/kg and an ED50 [2] of 1 mg/kg. It also gave an ED50 [3] of 0.1 mg/kg and an IC50 [4] of 1.5 nM.
`CCOCN1C2=C(C(=O)Nc3ccccc3F)C(=O)CCN2c2ccc(F)cc21` [Compound 172] gave a minimal effective dose [1, 6] of at most 10 mg/kg, a minimal effective dose [1, 5] of 0.3 mg/kg and an ED50 [2] of 0.1 mg/kg. It also gave an ED50 [3] of 0.01 mg/kg and an IC50 [4] of 0.14 nM.
In the case of `CCOCN1C2=C(C(=O)Nc3c(F)cccc3F)C(=O)CCN2c2ccc(F)cc21` [Compound 173], the minimal effective dose [1, 6] is reported as over 10 mg/kg, the minimal effective dose [1, 5] is reported as over 10 mg/kg and the ED50 [2] is reported as 3 mg/kg. For the same molecule, the ED50 [3] was 1 mg/kg and the IC50 [4] was 0.65 nM.
`O=C1CCN2C(=C1C(=O)Nc1ccccc1F)N(CC1CCOC1)c1cc(F)ccc12` (stereo not shown) [Compound 174] gave a minimal effective dose [1, 5] of 3 mg/kg, an ED50 [2] of under 3 mg/kg and an ED50 [3] of under 1 mg/kg. It also gave an IC50 [4] of 2.28 nM.
For `O=C1CCN2C(=C1C(=O)Nc1ccccc1F)N(CC1CCCO1)c1cc(F)ccc12` (stereo not shown) [Compound 175], the minimal effective dose [1, 5] was over 10 mg/kg, the ED50 [2] was 2 mg/kg and the ED50 [3] was under 1 mg/kg. For the same molecule, the IC50 [4] was 1.5 nM.
For `CC(C)(C)OC(=O)CN1C2=C(C(=O)Nc3ccccc3F)C(=O)CCN2c2ccc(F)cc21` [Compound 176], the minimal effective dose [1, 5] was over 10 mg/kg, the ED50 [2] was over 30 mg/kg and the ED50 [3] was over 1 mg/kg. The IC50 [4] was 56.2 nM.
`O=C(O)CN1C2=C(C(=O)Nc3ccccc3F)C(=O)CCN2c2ccc(F)cc21` [Compound 177] gave a minimal effective dose [1, 5] of over 10 mg/kg, an ED50 [2] of over 30 mg/kg and an ED50 [3] of over 1 mg/kg. It also gave an IC50 [4] of 54.8 nM.
`O=C(Nc1c(F)cccc1F)OCCN1C2=C(C(=O)Nc3c(F)cccc3F)C(=O)CCN2c2ccc(F)cc21` [Compound 179] gave a minimal effective dose [1, 6] of over 10 mg/kg, an ED50 [2] of over 30 mg/kg and an ED50 [3] of 10 mg/kg. For the same molecule, the IC50 [4] was 7.65 nM.
For `CC1(CN2C3=C(C(=O)Nc4ccccc4F)C(=O)CCN3c3ccc(F)cc32)COC1` [Compound 180], the minimal effective dose [1, 5] was over 10 mg/kg, the ED50 [2] was over 30 mg/kg and the ED50 [3] was 1 mg/kg. It also gave an IC50 [4] of 18 nM.
